Experimental data as given in patent US5646128A, “Methods for treating adenosine kinase related conditions” (priority 1994, dated 1997).
“Also recorded” adds a separate entry of the source. Where two headings read alike, the source gives them in different places.

Assays:
[1] = tested on: perfusate adenosine, isolated rat hearts; settings: normoxic, hypoxic, anoxic or ischemic conditions; alone; cited from earlier work
[2] = tested on: adenosine uptake, rat brain slices; settings: cited from earlier work
[3] = tested on: adenosine uptake, guinea pig brain slices; settings: cited from earlier work
[4] = cited from earlier work
[5] = tested on: dog hearts subjected to ischemia and reperfusion; settings: in vivo; cited from earlier work
[6] = mouse, in vivo; cited from earlier work
heart = settings: in vivo; cited from earlier work
[7] = tested on: tumor necrosis factor alpha; settings: cited from earlier work
adenosine kinase = target: T1, adenosine kinase (Bos taurus, UniProt A0AAA9RZ79); assay: Adenosine kinase inhibition in intact cells (capillary endothelial cells from bovine heart); assay type: cell-based; settings: 20 μM 2'-deoxycoformycin, 5 μM [3H]adenosine
T1 construct: endogenous in cells; host or cells: capillary endothelial cells from bovine heart
Description: Inhibition of adenosine kinase in intact cells was determined from the amount of incorporation of radioisotope from adenosine into the adenylates (AMP, ADP and ATP) in the presence of adenosine deaminase inhibition. […] The media was then discarded and the cells were treated with 50 μl 0.4M perchloric acid, centrifuged and the supernalants neutralized with 100 μl alanine: freon (1:4).

[8] = tested on: E. Coli 0111:B4 lipopolysaccharide (LPS) endotoxic shock; assay: Endotoxic shock in pigs; assay type: in vivo, Yucatan miniature pigs
Description: Male or female Yucatan miniature pigs (20-27 kg) were pre-medicated with xylazine ([…] i.m.), ketamine (150 mg i.m.), and atropine (1 mg i.m.). The animals were intubated, administered 10 mg/kg of pentobarbital intravenously, and covered with a blanket to maintain normal body temperature. A pentobarbital infusion was maintained at 10 mg/kg/hr. The pigs were ventilated with 30% O2 using a Harvard large animal respirator at 7-10 breaths/rain in order to achieve a blood pH of approximately 7.45-7.50. A bolus of 4 mg of Pancuronium bromide was given to inhibit muscle contraction in response to the cautery and the animals were hydrated with a continuous infusion of saline at 60-80 cc/hr. A left thoracotomy was performed in the third intercostal space and the pulmonary artery, carotid artery, external jugular vein were cannulated with PE-190 tubing. A line was also placed in the left atrium and a catheter tipped micromanometer was inserted into the left ventricle via an apical stab wound. A transit-time flow probe was placed on the pulmonary artery. Pressure readings were obtained using a Statham pressure transducer connected to a Gould strip chart recorder. Heparinized arterial blood samples for blood gases were obtained through the carotid arterial catheter. Drugs and endotoxin were infused through the external jugular catheter.
After the animals had stabilized, a continuous infusion of GP-1-515 (0.3 μg/kg/m in) was started, followed 30 min later by a slow infusion of E. Coli 0111:B4 lipopolysaccharide (LPS) (Sigma Chemical Co., St. Louis, Mo.) over 30 min. The animals continued to receive GP-1-515 or vehicle for 4 additional hours and were ventilated with a fixed tidal volume and FiO2. […] Control animals developed severe hypoxemia, hypercapnia, and acidosis. […] 4/7pigs in the control group died (several of whom had frank pulmonary edema) compared to 1/7in the GP-1-515-treated group. Upon completion of the study, the surviving animals were euthanized with an intravenous bolus of pentobarbital.

[9] = tested on: bacterial peritonitis and septic shock; assay: Cecal ligation and puncture, model of chronic sepsis; assay type: in vivo, male CD rats; settings: 5 mg/kg orally, 2 hours before
Description: Cecal ligation and puncture (CLP) is a model of bacterial peritonitis and septic shock which mimics systemic infections in humans. In these experiments, male CD rats were fasted overnight and treated orally with either GP-1-515 (5 mg/kg) or vehicle by gavage. Two hours later, animals were anesthetized with ether and the anterior abdominal wall was shaved. A midline incision was made and the cecum was exteriorized and ligated with 3-0 silk suture near the ilial-cecal junction without causing bowel obstruction. The cecum was punctured twice on the anti-mesenteric side using a yellow tip disposable pipette tip (Fisher, Tustin, Calif.) and squeezed to ensure patency. The cecum was placed back in the abdominal cavity and the peritoneal wall was closed with 5-0 nylon sutures. The skin was closed with 9 mm stainless steel wound clips. The animals were resuscitated with a subcutaneous injection of 2 mL of sterile saline. No antibiotics were administered.

E. coli LPS endotoxemia [10] = assay: Prophylactic treatment for endotoxemia in mice; assay type: in vivo, Balb/C mice; settings: 5 mg/kg oral, 6 hours before 700 ug LPS i.v.
Description: As shown in Example E, intravenous treatment with an adenosine kinase inhibitor improves survival of mice if administered immediately after intravenous injection with LPS. In the following experiments, it was shown that an adenosine kinase inhibitor (GP-1-515) protects animals against endotoxemia if administered prophylactically. In these experiments, 25-30 gram male Balb/C mice received oral GP-1-515 (5 mg/kg in water) or vehicle by gavage. Six hours later, the animals received an intravenous injection of 700 ug of E. coli LPS (Sigma Chemical Co.). In an experiment involving 10 animals per group, 50% of mice in the adenosine kinase inhibitor-treated group survived for 2 days, while none of animals in the vehicle treated group survived for that time period (data not shown).

TNF-α = assay: Inhibition of TNF-alpha production in endotoxemic mice (ELISA); assay type: in vivo, Balb/C mice; settings: 0.1 mg/kg i.v., one hour after LPS; p<0.01
Description: In these experiments, plasma TNF-α levels were measured in GP-1-515and placebo-treated mice (8 animals per group). Balb/C mice received an intravenous injection of E. coli LPS (900 ug/animal) (Sigma Chemical Co.) followed immediately by a second injection with 0.1 mg/kg of GP-1-515 or vehicle. Some animals were pretreated with an intraperitoneal injection of the adenosine receptor antagonist 8SPT. One hour later, blood was obtained from ether anesthetized animals by intracardiac puncture using a heparinized syringe. Blood samples were chilled on ice, centrifuged at 5000 rpm in a microcentrifuge for 5 minutes, and the plasma removed. TNF-α levels in the plasma were assayed by ELISA according to the instructions provided by the manufacturer (Endogen, Cambridge, Mass.).

E. coli LPS endotoxemia [11] = assay: Survival in endotoxemia (E. coli LPS) in mice; assay type: in vivo, Balb/C mice; settings: i.v. immediately after 900 ug LPS i.v.; p=0.015
Description: An adenosine kinase inhibitor (GP-1-515) was used to increase endogenous adenosine production in vivo.

bacterial translocation = assay: Burn model, bacterial translocation to mesenteric lymph nodes; assay type: in vivo, Female CF-1 mice
Description: Female CF-1, non-Swiss, non-albino mice (age 8-12 weeks) (Charles River Laboratory, Wilmington, Mass.) were anesthetized with a 1-2 minute exposure to methoxyflurane (Abbott Labs, Chicago, Ill.). The shaved dorsum was burned by a 6-second exposure to steam using a 3.5×5.5 cm template to produce a 32% total body surface area full thickness burn. Animals were resuscitated with 1 mL of normal saline i.p., followed by 0.1 mg/kg i.p./injection of GP-1-515 or an equal amount of vehicle. Animals also received an i.p. injection of morphine sulfate (15 mg/kg). The animals were administered a second injection of GP-1-515 (0.1 mg/kg) or vehicle i.p. 6 hours after the burn. Animals were fasted for 4 hours before the burn and for 24 hours thereafter. After 48 hours, the animals were sacrificed by cervical dislocation and the abdomen was opened using aseptic techniques. Mesenteric lymph nodes were harvested and weighed in sterile bags, homogenized in Trypticate Soy Broth (BBL, Becton Dickinson Microbiology System, Cockeysville, Md.). Ser. dilutions of the homogenate were plated on […] plates (BBL, Becton Dickinson) at 37° C. and the presence or absence of bacterial colonies was determined 48 hours later. In experiments involving approximately 120 animals, 52% of control mice had positive mesenteric lymph node cultures compared to 32% of GP-1-515-treated mice (p<0.05).

[12] = Oral bioavailability (statement); assay type: in vivo; settings: pro-drug of GP-1-515
[13] = tested on: plasma leakage in rat skin; assay: Suppression of vascular (plasma) leakage in rat skin, Evans' Blue; assay type: in vivo, Male SA rats; settings: for inhibition at 5 mg/kg: Rattus norvegicus, po, 5 mg/kg p.o. 1 hr prior
Description: Leakage of plasma into inflamed skin was measured using Evans' Blue (Sigma Chemical Co., St. Louis, Mo.), which binds irreversibly to albumin. Evans' Blue and bovine serum albumin (Sigma) were mixed (20 and 40 mg/mL PBS, respectively) and incubated for 15 min at room temperature in order to form a conjugate. The mixture was then filtered through a 0.45 μm pore syringe filter and immediately used. […] The rats were then briefly anesthetized with halothane and dorsal skin injection sites (up to 4/rat) were stamped with a 12 mm test tube inked with a felt pad. Every site received 100 μl of an inflammatory agent or PBS injected intradermally into the middle of the circular mark. Inflammatory agents included carrageenan (1%) and histamine (10^-3 M) (Sigma). Rats were then returned to their cages. Two hrs later, animals were again anesthetized and 0.5 mL blood was obtained through orbital plexus bleed. Following sacrifice of the rats, the injection sites were excised along the marked lines, and subcutaneous muscle and fat layers were removed from the skin biopsies. Each skin biopsy was weighed and cut in four, and its Evans' Blue content was extracted overnight by incubation in 1 mL N,N-dimethylformamide (Aldrich, Milwaukee, Wis.). The absorbance at 650 nm of plasma samples and skin extracts was read in a plate reader, and the plasma content of each skin piece was calculated and expressed as μl plasma/g tissue.

T1 sequence (A0AAA9RZ79 1-362): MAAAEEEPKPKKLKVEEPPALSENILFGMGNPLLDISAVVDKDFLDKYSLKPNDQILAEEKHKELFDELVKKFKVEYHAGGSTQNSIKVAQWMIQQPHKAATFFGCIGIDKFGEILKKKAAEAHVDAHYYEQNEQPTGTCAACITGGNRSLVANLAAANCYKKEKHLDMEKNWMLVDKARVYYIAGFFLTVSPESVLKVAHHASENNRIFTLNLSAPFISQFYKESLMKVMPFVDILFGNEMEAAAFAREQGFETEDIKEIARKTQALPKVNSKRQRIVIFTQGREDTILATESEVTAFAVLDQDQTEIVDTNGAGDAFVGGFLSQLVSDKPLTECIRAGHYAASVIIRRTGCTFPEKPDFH

## Nc1ncnc2c1c(I)cn2[C@@H]1O[C@H](CO)[C@@H](O)[C@H]1O [GP-1-202, 5-iodotubercidin, reference compound]
[1]
  perfusate adenosine concentration, isolated rat hearts: no increase in perfusate adenosine concentration
[2]
  adenosine uptake, rat brain slices: inhibited
[3]
  adenosine uptake, guinea pig brain slices: inhibited
[4]
  blood pressure and heart rate in anesthetized rats: decrease blood pressure and heart rate
[5]
  effects in dog hearts, ischemia and reperfusion: inconsistent effects
[6]
  body temperature in mice: hypothermia
  flaccidity and locomotor activity in mice: pronounced general flaccidity and much-reduced spontaneous locomotor activity

## Nc1ncnc2c1ncn2[C@@H]1O[C@H](CO)[C@@H](O)[C@H]1O [Adenosine, adenosine]
heart
  coronary steal: cause coronary steal
  inotropic, chronotropic and dromotropic effects: negative inotropic, chronotropic and dromotropic effects
[7]
  in vitro production of tumor necrosis factor alpha: inhibit in vitro production

## NC[C@H]1O[C@@H](n2nc(Br)c3c(N)ncnc32)[C@H](O)[C@@H]1O [GP-1-515]
Adenosine kinase
  IC50: 9 nM
[8]; 0.3 μg/kg/min infusion
  gas exchange, pulmonary function, blood gases: marked protection; also recorded: minimal changes in blood gases; also recorded: did not develop the hypoxemia, hypercapnia and acidosis exhibited in the control animals
[8]; control 4/7
  pigs died: 1/7
[8]; versus control
  blood pressure: Blood pressures were similar in the treated and control groups
  heart rate: the control group,, required a significantly higher heart rate; also recorded: lower heart rates than control animals
[8]; versus untreated
  other hemodynamic parameters, including pulmonary flow and pulmonary vascular resistance: either not different or modestly improved
[9]
  survival after cecal ligation and puncture: improved survival
E. coli LPS endotoxemia [10]
  mice surviving for 2 days: 50%
TNF-α
  plasma TNF-α levels: significantly decreased plasma TNF-α levels
E. coli LPS endotoxemia [11]
  survival in endotoxic shock: dose-dependent increase in survival; also recorded: protecting against endotoxic shock
Bacterial translocation; 0.1 mg/kg i.p. twice, 48 hours, control 52%, p<0.05
  mice with positive mesenteric lymph node cultures: 32%
Bacterial translocation; after a severe burn (or pancreatitis)
  bacterial translocation: significantly decreased; also recorded: significantly reduce bacterial translocation

## CC(=O)O[C@@H]1[C@H](OC(C)=O)[C@@H](CN)O[C@H]1n1nc(Br)c2c(N)ncnc21 [GP-1-792, 4-amino-1-(5-amino-5-deoxy-2,3-di-O-acetyl-1-β-D-ribofuranosyl)-3-bromopyrazolo[3,4-d]pyrimidine]
[12]
  oral bioavailability: orally bioavailable
[13]; FIG. 13 legend
  suppression of carrageenan and histamine induced plasma leakage: suppression of carrageenan and histamine induced plasma leakage
[13]; carrageenan (1%), read-out: inhibition of carrageenan-induced plasma leakage
  inhibition at 5 mg/kg: 47 ± 5%
[13]; histamine (10^-3 M), read-out: inhibition of histamine-induced plasma leakage
  inhibition at 5 mg/kg: 51 ± 5%
